In US20170073337A1, “DIHYDROTHIAZINE AND DIHYDROOXAZINE DERIVATIVES HAVING BACE1 INHIBITORY ACTIVITY” (Shionogi & Co., Ltd., priority 2014, published 2017):
In brackets after ≈: the same amount, converted by molar mass. Read-outs that look alike come from different tables or passages of the source.

Assays:
Recombinant human BACE1 = target: T1, Recombinant human BACE1 (Homo sapiens, UniProt P56817); assay: Assay of BACE1 inhibitory activity: 96-well; type: biochemical; settings: Assay format 96-well
T1 construct: purchased R&D Systems
T1 sequence (P56817 46-501): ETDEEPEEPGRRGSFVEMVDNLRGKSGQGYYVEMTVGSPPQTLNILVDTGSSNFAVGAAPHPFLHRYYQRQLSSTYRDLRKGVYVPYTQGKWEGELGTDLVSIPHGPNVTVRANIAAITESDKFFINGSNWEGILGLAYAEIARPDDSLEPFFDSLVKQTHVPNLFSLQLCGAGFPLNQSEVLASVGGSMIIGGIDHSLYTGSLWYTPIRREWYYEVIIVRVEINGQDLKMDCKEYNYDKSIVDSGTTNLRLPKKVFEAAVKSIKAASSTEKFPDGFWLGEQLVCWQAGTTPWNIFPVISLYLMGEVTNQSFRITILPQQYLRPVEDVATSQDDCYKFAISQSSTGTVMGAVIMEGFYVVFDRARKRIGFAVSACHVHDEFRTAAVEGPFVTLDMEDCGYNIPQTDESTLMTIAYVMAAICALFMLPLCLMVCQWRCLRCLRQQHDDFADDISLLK
Experimental: 48.5 μL of substrate peptide solution (Biotin-XSEVNLDAEFRHDSGC-Eu: X=ε-amino-n-capronic acid. Eu=Europium cryplate) was added to each well of 96-hole half-area plate (a black plate: Costar), and after addition of 0.5 μl of the compound of the present invention (DMSO solution) and 1 μl of Recombinant human BACE1(R&D Systems), the reaction mixture was incubated at 30° C. for 3.5 hours. The substrate peptide was synthesized by reacting Cryptate TBPCOOH mono SMP (CIS bio international) with Biotin-XSEVNLDAEFRHDSGC (Peptide Institute, Inc.).
After the incubation for reaction, 50 μl of 8.0 μg/ml Streptavidin-XL665 (CIS bio international) dissolved in phosphate buffer (150 mmol/L […]—KH2PO4, pH 7.0, 0.008% Triton X-100, 0.8 mol/L KF) was added to each well and left stand at 30° C. for 45 minutes.

[1] = tested on: Aβ production in neuroblastoma SH-SY5Y cells (SH/APPwt); assay: β-amyloid (Aβ) production inhibitory effect in cell: 96-well; type: cell-based; settings: Homo sapiens, Assay format 96-well
Experimental: Neuroblastoma SH-SY5V cells (SH/APPwt) with human wild-type R-APP excessively expressed therein were prepared at 8×10^5 cells/mL, and 150 μl portions thereof were inoculated into each well of a 96-well culture plate (Falcon). The cells were cultured for 2 hours at […]. in a 5% gaseous carbon dioxide incubator. […] Namely, the final DMSO concentration was 1%, and the amount of the cell culture was 200 μl. After the incubation was performed for 24 hours from the addition of the test compound, 100 μl of the culture supernatant was collected from each fraction. The amount of the Aβ in each fraction was measured. The Aβ amount was measured as follows. 10 μl of a homogeneous time resolved fluorescence (HTRF) measurement reagent (Amyloid β1-40 peptide: CIS bio international) and 10 μof the culture supernatant were put into a 384-well half area microplate (black microplate, Costar) and mixed with each other, and then left standing overnight at 4° C. while the light was shielded.

CYP1A2 = target: T2, CYP1A2 (Homo sapiens, UniProt P05177); assay: CYP inhibition test (CYP1A2); type: in vitro ADME; settings: pooled human liver microsomes; 7-ethoxyresorufin O-deethylation
T2 construct: The commercially available pooled human liver microsomes are used as an enzyme resource; from tissue; host or cells: pooled human liver microsomes
T2 sequence (P05177 1-516): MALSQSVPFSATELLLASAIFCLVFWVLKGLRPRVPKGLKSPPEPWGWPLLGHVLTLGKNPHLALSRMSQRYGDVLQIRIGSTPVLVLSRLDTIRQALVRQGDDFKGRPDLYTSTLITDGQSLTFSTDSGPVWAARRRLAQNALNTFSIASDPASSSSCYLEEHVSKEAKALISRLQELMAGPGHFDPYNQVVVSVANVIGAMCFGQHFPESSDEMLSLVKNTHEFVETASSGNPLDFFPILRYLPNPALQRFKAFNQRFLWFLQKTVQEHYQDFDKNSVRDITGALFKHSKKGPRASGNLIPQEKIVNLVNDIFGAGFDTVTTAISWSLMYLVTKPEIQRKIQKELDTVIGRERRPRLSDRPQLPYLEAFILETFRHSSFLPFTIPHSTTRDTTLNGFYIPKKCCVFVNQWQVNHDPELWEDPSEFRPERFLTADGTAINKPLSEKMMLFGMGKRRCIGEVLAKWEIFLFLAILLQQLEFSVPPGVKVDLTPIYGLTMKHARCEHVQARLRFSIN
Procedure, shortened: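 Inhibition of CYP1A2 was measured in commercially available pooled human liver microsomes (0.2 mg protein/mL) using 7-ethoxyresorufin O-deethylation with 0.5 μmol/L ethoxyresorufin. Test compound at 1, 5, 10, 20 μmol/L in […] Hepes buffer was incubated at 37° C. after NADPH addition; methanol/acetonitrile=1/1 (v/v) stopped the reaction, and resorufin was read fluorescently.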

CYP2C9 = target: T3, CYP2C9 (Homo sapiens, UniProt P11712); assay: CYP inhibition test (CYP2C9); type: in vitro ADME; settings: pooled human liver microsomes; tolbutamide methyl-hydroxylation
T3 construct: The commercially available pooled human liver microsomes are used as an enzyme resource; from tissue; host or cells: pooled human liver microsomes
T3 sequence (P11712 whole entry): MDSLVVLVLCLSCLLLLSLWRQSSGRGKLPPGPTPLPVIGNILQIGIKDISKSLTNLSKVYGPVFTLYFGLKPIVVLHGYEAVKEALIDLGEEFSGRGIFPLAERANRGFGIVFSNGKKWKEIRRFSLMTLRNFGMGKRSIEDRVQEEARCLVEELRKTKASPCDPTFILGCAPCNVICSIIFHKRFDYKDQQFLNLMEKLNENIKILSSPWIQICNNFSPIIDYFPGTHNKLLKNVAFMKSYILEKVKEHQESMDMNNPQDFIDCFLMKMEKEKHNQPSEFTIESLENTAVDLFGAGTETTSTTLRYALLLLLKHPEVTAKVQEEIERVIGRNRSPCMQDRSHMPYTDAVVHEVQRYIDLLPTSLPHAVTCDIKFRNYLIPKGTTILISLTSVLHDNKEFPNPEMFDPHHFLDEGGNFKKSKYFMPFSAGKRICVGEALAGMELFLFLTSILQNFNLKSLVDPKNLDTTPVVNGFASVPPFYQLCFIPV
Procedure, shortened: (§1)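 Metabolite formation was quantified by LC/MS/MS: dextrorphan (2D6, 5 μmol/L dextromethorphan), terfenadine alcohol (3A4, 1 μmol/L terfenadine), 4′-hydroxymephenytoin (2C19, 50 μmol/L S-mephenytoin) and hydroxytolbutamide (2C9, 100 μmol/L tolbutamide). Reactions used NADPH-started pooled human liver microsomes (0.2 mg/mL) at 37 °C with compound at 1–20 μmol/L (four points). IC50 was calculated by logistic model relative to the DMSO control.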

CYP2C19 = target: T4, CYP2C19 (Homo sapiens, UniProt P33261); assay: CYP inhibition test (CYP2C19); type: in vitro ADME; settings: pooled human liver microsomes; mephenytoin 4′-hydroxylation
T4 construct: The commercially available pooled human liver microsomes are used as an enzyme resource; from tissue; host or cells: pooled human liver microsomes
T4 sequence (P33261 whole entry): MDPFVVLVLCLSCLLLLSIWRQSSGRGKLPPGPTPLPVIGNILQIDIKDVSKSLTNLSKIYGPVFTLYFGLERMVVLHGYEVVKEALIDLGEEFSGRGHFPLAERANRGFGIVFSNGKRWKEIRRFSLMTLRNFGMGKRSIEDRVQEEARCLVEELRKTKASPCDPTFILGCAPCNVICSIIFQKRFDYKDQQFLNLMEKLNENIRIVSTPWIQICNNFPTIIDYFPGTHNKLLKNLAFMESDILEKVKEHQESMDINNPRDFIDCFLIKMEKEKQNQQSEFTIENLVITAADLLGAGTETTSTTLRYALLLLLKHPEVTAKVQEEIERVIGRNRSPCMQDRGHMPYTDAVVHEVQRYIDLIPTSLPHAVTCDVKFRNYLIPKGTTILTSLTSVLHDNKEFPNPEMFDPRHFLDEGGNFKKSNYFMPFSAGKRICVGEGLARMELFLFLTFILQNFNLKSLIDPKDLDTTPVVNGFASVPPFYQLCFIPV
Procedure, shortened: as §1

CYP2D6 = target: T5, CYP2D6 (Homo sapiens, UniProt P10635); assay: CYP inhibition test (CYP2D6); type: in vitro ADME; settings: pooled human liver microsomes; dextromethorphan O-demethylation
T5 construct: The commercially available pooled human liver microsomes are used as an enzyme resource; from tissue; host or cells: pooled human liver microsomes
T5 sequence (P10635 whole entry): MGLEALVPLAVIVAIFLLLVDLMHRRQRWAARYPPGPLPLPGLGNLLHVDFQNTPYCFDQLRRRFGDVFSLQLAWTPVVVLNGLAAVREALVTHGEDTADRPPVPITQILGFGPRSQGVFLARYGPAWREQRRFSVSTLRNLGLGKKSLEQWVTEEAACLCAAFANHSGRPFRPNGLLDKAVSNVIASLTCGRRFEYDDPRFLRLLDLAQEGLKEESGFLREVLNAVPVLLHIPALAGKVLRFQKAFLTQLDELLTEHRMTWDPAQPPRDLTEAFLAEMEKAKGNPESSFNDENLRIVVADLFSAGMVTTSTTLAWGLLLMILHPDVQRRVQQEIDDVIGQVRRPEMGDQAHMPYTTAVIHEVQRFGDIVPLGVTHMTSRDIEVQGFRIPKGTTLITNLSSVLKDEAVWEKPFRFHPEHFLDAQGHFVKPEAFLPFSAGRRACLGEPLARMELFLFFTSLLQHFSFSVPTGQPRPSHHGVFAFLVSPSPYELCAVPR
Description: The CYP inhibition test is a test to assess the inhibitory effect of a compound of the present invention towards typical substrate metabolism reactions on CYP enzymes in human liver microsomes. The marker reactions on human main five CYP enzymes (CYP1A2, 2C9, 2C19, 2D6, and 3A4) are used as follows: 7-ethoxyresorufin O-deethylation (CYP1A2), tolbutamide methyl-hydroxylation (CYP2C9), mephenytoin 4′-hydroxylation (CYP2C19), dextromethorphan O-demethylation (CYP2D6), and terfenadine hydroxylation (CYP3A4). The commercially available pooled human liver microsomes are used as an enzyme resource.
The reaction conditions were as follows: substrate, 0.5 μmol/L ethoxyresorufin (CYP1A2), 100 μmol/L tolbutamide (CYP2C9), 50 μmol/L, S-mephenytoin (CYP2C19), 5 μmol/L dextromethorphan (CYP2D6), 1 μmol/L terfenadine (CYP3A4): reaction time, 15 minutes: reaction temperature, 37° C.; enzyme, pooled human liver microsomes 0.2 mg protein/mL; concentrations of the compound of the present invention, 1, 5, 10, 20 μmol/L (four points).
Five kinds of substrates, human liver microsomes, and a compound solution of the present invention in […] Hepes buffer were added to a 96-well plate at the composition as described above as a reaction solution. NADPH as a cofactor was added to this 96-well plate in order to initiate metabolism reactions. After the incubation at 37° C.for […], a methanol/acetonitrile=1/1 (v/v) solution was added to stop the reaction. After the centrifugation at 3000 rpm for 15 minutes, resorufin (CYP1A2 metabolite) in the supernatant was quantified by a fluorescent plate reader, and hydroxytolbutamide (CYP2C9 metabolite), 4′-hydroxymephenytoin (CYP2C19 metabolite), dextrorphan (CYP2D6 metabolite), and terfenadine alcohol metabolite (CYP3A4 metabolite) in the supernatant were quantified by LC/MS/MS.
The sample adding DMSO to a reaction system instead of compound of the present invention solution was adopted as a control (100%) because DMSO was used as a solvent to dissolve a compound of the present invention. Remaining activity (%) was calculated at each concentration of a compound of the present invention, and IC50 value was calculated by reverse presumption by a logistic model using a concentration and an inhibition rate.

CYP3A4 = target: T6, CYP3A4 (Homo sapiens, UniProt P08684); assay: CYP inhibition test (CYP3A4); type: in vitro ADME; settings: pooled human liver microsomes; terfenadine hydroxylation
T6 construct: The commercially available pooled human liver microsomes are used as an enzyme resource; from tissue; host or cells: pooled human liver microsomes
T6 sequence (P08684 whole entry): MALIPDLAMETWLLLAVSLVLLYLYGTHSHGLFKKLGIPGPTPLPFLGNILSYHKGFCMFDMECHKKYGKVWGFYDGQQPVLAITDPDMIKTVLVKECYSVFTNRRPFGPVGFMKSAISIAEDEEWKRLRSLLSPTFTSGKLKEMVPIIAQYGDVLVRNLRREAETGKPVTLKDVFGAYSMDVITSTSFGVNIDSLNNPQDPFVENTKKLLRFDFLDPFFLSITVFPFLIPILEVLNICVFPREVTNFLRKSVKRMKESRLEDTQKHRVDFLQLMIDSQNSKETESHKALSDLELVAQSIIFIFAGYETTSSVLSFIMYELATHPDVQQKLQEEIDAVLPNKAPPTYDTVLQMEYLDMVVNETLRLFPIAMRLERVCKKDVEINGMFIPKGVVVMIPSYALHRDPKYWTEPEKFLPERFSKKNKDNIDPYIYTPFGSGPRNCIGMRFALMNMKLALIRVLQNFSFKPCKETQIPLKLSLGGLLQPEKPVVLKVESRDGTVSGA
Procedure, shortened: as §1

Solubility test = type: physicochemical; settings: kinetic from dmso stock; for solubility kinetic at 16 h: 25 °C
Procedure, shortened: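 Dissolved concentration determined by LC/MS or SPE/MS (absolute calibration) in diluted filtrates, after 2 μL of 10 mmol/L DMSO stock was added to 198 μL JP 1st or JP 2nd fluid and equilibrated either 1 h with shaking at room temperature or 16 h standing at 25 °C.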

[2] = target: T7, human ether-a-go-go related gene (hERG) channel (Homo sapiens, UniProt Q12809); assay: hERG test; type: cell-based; settings: % inhibition of IKr tail peak current at 3 uM; CHO cells expressing hERG
T7 construct: expressed in transfected cells; host or cells: CHO cells
T7 sequence (Q12809 whole entry): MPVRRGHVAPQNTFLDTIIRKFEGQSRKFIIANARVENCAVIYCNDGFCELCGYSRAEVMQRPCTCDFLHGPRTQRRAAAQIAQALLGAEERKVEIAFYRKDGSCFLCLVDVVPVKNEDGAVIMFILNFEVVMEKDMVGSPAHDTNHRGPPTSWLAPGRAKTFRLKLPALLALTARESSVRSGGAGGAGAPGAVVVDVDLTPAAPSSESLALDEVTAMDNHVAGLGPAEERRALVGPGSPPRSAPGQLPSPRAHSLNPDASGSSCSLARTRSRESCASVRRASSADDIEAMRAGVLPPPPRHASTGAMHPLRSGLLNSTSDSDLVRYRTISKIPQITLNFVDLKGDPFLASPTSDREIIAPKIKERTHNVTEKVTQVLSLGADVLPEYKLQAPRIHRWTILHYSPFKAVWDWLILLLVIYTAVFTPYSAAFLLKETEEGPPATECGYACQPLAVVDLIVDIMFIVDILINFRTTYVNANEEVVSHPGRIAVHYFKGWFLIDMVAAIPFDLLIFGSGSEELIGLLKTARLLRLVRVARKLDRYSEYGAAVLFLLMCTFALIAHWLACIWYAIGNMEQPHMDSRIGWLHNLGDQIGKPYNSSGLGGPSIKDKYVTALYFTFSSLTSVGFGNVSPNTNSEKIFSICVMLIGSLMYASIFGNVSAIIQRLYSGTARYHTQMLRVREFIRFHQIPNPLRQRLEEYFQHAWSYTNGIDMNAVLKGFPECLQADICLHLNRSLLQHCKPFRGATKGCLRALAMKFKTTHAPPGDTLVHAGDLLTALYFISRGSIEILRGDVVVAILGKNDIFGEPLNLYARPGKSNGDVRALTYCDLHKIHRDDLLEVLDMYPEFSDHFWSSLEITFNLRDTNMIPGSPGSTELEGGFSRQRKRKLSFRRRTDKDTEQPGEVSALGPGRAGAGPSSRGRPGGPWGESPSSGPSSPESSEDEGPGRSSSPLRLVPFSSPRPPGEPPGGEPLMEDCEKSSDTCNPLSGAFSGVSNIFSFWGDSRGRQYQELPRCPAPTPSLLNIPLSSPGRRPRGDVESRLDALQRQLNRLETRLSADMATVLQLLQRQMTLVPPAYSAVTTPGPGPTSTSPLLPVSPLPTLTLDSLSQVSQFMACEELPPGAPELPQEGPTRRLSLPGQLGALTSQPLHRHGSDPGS
Procedure, shortened: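 Automated whole-cell patch clamp was run on CHO cells carrying human hERG, held at −80 mV. Current was recorded during the −50 mV repolarization (2 s) that followed a 2 s +20 mV step, after a −50 mV leak pulse.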

Metabolic stability test = type: in vitro ADME; settings: human liver microsomes, 37° C., 30 minutes, NADPH
Procedure, shortened: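 Parent compound was measured by LC/MS/MS or SPE/MS after a methanol/acetonitrile quench and reported as % remaining, with the 0 min sample set to 100%. Incubations ran 30 min at 37 °C in pH 7.4 Tris buffer containing pooled human liver microsomes at 0.5 mg protein/mL and 1 mmol/L NADPH.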

[3] = JP 1st fluid, pH 1.2, simulated gastric fluid, read-out: JP1
[4] = JP 2nd fluid A, pH 6.8, aqueous buffer, read-out: JP2_μM

Row | Structure (SMILES) | IC50 (Recombinant human BACE1) | IC50 [1] | IC50 (CYP1A2) | IC50 (CYP2C9) | IC50 (CYP2C19) | IC50 (CYP2D6) | IC50 (CYP3A4) | solubility kinetic at 16 h (Solubility test; [3]) | solubility kinetic at 16 h (Solubility test; [4]) | hERG_3 uM_% [2] | remaining % (Metabolic stability test) | solubility kinetic at 1 h (Solubility test; [3]) | solubility kinetic at 1 h (Solubility test; [4])
1 | CO[C@H]1[C@@H](CF)OC(N)=N[C@]1(C)c1cc(NC(=O)c2ncc(Cl)cc2Cl)ccc1Cl [Compound I-22] | 0.023 µM | 0.00422 µM | ≥ 20 µM | ≥ 20 µM | ≥ 20 µM | ≥ 10 µM | ≥ 20 µM | 31.2 µM (≈ 14.8 µg/mL) | > 50 µM | 14.2% |  |  | 
2 | CO[C@H]1[C@@H](CF)OC(N)=N[C@]1(C)c1cc(NC(=O)c2ccc(Cl)cn2)ccc1F [Compound I-23] | 0.0344 µM | 0.00153 µM | ≥ 20 µM | ≥ 20 µM | ≥ 20 µM | ≥ 20 µM | ≥ 20 µM | 46.7 µM (≈ 19.8 µg/mL) | > 50 µM |  | 86.6% |  | 
3 | CO[C@H]1[C@@H](CF)OC(N)=N[C@]1(C)c1cc(NC(=O)c2ncc(Cl)cc2Cl)ccc1F [Compound I-26] | 0.0339 µM | 0.00176 µM |  | ≥ 20 µM | ≥ 20 µM | ≥ 20 µM | ≥ 20 µM | 41.9 µM (≈ 19.2 µg/mL) | > 50 µM | 29.6% | 76% |  | 
4 | CO[C@H]1[C@@H](C(F)(F)F)OC(N)=N[C@]1(C)c1cc(NC(=O)c2ccc(C#N)cn2)ccc1F [Compound I-34] | 0.0165 µM | 0.00185 µM | ≥ 20 µM | ≥ 20 µM | ≥ 20 µM | ≥ 20 µM | ≥ 20 µM | 44.4 µM (≈ 20 µg/mL) | > 50 µM | 15.5% |  |  | 
5 | COc1cnc(C(=O)Nc2ccc(F)c([C@@]3(C)N=C(N)O[C@H]4[C@@H]3OCC4(F)F)c2)cn1 [Compound I-36] | 0.022 µM | 0.00229 µM | ≥ 20 µM | ≥ 20 µM | ≥ 20 µM | ≥ 20 µM | ≥ 20 µM |  |  | 29.9% |  | 37.6 µM (≈ 16.4 µg/mL) | 15.9 µM (≈ 6.95 µg/mL)
6 | C[C@]1(c2cc(NC(=O)c3ccc(C#N)cn3)ccc2F)N=C(N)OCC12CC(F)(F)C2 [Compound I-43] | 0.0218 µM | 0.000615 µM | ≥ 20 µM | ≥ 20 µM | ≥ 20 µM | ≥ 20 µM | ≥ 20 µM | 29.9 µM (≈ 12.8 µg/mL) | > 50 µM |  | 84.5% |  | 
